Measured values from patent US20240101576A1, “HETEROCYCLIC INHIBITORS OF EGFR AND/OR HER2, FOR USE IN THE TREATMENT OF CANCER” (Scorpion Therapeutics, Inc., priority 2020, published 2024).

Columns and labels:
Assay type in all cases: cell-based
[1] = molecular target: T1, EGFR exon 20 SVD Ins D770_N771 (Ba/F3 cells) (Homo sapiens, UniProt P00533, INS770SVD); assay: Inhibitor activity on EGFR-dependent cell growth (CellTiter-Glo, 72 h), Ba/F3 EGFR exon 20 SVD Ins; details: read-out: BaF3 SVD IC50
T1 construct: expressed in transfected cells; host or cells: Ba/F3 (murine pro-B cells), retroviral transduction, puromycin selection, IL3-independent pool
Outline: (§1)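 IC50s derive from a sigmoidal dose–response fit of CellTiter-Glo signal. The signal was normalised between […]-treated cells and cell-free medium. Ba/F3 mutant-EGFR cells, seeded at 400–800/well depending on the line, had 72 h of exposure to a 10-point, 3-fold compound series.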

EGFR WT (Ba/F3 cells) = molecular target: T2, EGFR WT (Ba/F3 cells) (Homo sapiens, UniProt P00533); assay: Inhibitor activity on EGFR-dependent cell growth (CellTiter-Glo, 72 h), Ba/F3 EGFR WT; details: read-out: BaF3 WT IC50
T2 construct: expressed in transfected cells; host or cells: Ba/F3 (murine pro-B cells), retroviral transduction, puromycin selection, maintained with EGF
Outline: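 This growth assay used Ba/F3 cells that depend on wild-type EGFR and are kept in EGF without IL3. Compounds were made up as 10 mM DMSO stocks and diluted 3-fold over 10 points. 120 nL went onto 600 cells/well. After 72 hours, 40 μL CellTiter-Glo was added and luminescence read on EnVision after 30 min.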

[2] = molecular target: T3, EGFR exon 20 FQEA Ins A763_V764 (Ba/F3 cells) (Homo sapiens, UniProt P00533, INS763FQEA); assay: Inhibitor activity on EGFR-dependent cell growth (CellTiter-Glo, 72 h), Ba/F3 EGFR exon 20 FQEA Ins; details: read-out: BaF3 FQEA IC50
T3 construct: expressed in transfected cells; host or cells: Ba/F3 (murine pro-B cells), retroviral transduction, puromycin selection, IL3-independent pool
Outline: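 Mutant EGFR drives IL3-independent growth of engineered Ba/F3 pools. L858R cells go in at 400/well, L858R/C797S at 600, and exon 19del or FQEA insertion at 800. After 72 h with compound, plates are equilibrated 15 min at RT. Reagent is added 1:1, followed by 30 min and a luminescence read.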

[3] = molecular target: T4, EGFR exon 20 ASV Ins V769_D770 (Ba/F3 cells) (Homo sapiens, UniProt P00533, INS769ASV); assay: Inhibitor activity on EGFR-dependent cell growth (CellTiter-Glo, 72 h), Ba/F3 EGFR exon 20 ASV Ins; details: read-out: BaF3 ASV IC50
T4 construct: expressed in transfected cells; host or cells: Ba/F3 (murine pro-B cells), retroviral transduction, puromycin selection, IL3-independent pool
Outline: as §1

T2 sequence (P00533 25-1210): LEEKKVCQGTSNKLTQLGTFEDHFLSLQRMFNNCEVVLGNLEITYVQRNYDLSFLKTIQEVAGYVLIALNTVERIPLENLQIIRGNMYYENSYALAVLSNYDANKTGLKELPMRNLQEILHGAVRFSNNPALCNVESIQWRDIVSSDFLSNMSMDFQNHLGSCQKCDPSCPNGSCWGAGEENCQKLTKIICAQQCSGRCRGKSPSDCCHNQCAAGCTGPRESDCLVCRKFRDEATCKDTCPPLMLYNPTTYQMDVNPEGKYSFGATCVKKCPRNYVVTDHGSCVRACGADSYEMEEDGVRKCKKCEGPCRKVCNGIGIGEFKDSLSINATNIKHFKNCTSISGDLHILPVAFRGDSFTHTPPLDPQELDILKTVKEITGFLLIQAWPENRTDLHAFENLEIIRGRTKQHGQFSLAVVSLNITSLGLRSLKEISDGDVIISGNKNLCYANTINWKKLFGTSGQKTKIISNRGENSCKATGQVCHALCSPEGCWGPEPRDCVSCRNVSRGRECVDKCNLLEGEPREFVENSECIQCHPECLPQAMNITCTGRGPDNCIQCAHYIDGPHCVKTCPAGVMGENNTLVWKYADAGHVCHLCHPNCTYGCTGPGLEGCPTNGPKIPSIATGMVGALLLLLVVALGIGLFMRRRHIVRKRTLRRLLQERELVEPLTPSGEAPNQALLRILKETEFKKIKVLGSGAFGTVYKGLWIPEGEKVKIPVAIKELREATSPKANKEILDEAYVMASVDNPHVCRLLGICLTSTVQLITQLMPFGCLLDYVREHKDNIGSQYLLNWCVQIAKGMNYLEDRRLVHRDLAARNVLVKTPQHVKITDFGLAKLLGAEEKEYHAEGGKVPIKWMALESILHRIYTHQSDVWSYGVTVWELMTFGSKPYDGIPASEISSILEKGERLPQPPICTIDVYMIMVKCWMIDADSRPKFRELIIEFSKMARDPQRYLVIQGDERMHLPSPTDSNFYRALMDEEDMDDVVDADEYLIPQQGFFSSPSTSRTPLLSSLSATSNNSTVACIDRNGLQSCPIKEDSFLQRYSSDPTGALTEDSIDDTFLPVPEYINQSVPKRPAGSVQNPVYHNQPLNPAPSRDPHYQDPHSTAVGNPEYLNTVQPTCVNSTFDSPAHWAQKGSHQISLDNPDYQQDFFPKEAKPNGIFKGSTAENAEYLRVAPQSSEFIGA
T1 sequence (P00533 with tags, fused parts or gaps INS770SVD): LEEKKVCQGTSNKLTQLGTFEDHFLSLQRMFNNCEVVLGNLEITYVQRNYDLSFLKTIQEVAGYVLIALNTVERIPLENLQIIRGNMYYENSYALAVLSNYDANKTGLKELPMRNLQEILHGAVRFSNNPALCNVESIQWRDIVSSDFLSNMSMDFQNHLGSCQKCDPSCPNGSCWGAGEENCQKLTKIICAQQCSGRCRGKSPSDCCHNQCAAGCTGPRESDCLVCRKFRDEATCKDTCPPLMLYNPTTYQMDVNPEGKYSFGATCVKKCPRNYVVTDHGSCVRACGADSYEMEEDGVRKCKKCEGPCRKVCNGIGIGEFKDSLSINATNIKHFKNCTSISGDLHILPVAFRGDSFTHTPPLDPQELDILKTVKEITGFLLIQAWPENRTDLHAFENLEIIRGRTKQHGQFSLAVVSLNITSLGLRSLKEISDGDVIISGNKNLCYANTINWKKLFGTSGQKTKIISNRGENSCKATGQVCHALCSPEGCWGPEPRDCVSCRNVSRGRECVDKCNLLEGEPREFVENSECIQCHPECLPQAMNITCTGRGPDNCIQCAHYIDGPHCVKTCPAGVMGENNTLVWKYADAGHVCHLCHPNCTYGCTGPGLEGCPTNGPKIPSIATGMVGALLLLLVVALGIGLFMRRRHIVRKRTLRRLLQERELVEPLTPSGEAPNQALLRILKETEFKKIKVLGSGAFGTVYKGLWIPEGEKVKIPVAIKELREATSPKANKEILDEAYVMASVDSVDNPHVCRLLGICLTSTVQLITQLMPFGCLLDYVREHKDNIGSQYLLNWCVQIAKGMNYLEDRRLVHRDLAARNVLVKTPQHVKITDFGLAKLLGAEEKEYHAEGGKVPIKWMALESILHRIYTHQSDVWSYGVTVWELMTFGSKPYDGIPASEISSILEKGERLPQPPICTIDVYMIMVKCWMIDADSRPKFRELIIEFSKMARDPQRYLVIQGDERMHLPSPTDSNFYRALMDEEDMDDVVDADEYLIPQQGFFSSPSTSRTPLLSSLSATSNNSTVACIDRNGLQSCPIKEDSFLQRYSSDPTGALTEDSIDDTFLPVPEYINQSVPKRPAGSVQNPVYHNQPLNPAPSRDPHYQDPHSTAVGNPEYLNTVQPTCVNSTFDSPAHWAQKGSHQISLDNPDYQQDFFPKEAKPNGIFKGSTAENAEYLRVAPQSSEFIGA
T3 sequence (P00533 with tags, fused parts or gaps INS763FQEA): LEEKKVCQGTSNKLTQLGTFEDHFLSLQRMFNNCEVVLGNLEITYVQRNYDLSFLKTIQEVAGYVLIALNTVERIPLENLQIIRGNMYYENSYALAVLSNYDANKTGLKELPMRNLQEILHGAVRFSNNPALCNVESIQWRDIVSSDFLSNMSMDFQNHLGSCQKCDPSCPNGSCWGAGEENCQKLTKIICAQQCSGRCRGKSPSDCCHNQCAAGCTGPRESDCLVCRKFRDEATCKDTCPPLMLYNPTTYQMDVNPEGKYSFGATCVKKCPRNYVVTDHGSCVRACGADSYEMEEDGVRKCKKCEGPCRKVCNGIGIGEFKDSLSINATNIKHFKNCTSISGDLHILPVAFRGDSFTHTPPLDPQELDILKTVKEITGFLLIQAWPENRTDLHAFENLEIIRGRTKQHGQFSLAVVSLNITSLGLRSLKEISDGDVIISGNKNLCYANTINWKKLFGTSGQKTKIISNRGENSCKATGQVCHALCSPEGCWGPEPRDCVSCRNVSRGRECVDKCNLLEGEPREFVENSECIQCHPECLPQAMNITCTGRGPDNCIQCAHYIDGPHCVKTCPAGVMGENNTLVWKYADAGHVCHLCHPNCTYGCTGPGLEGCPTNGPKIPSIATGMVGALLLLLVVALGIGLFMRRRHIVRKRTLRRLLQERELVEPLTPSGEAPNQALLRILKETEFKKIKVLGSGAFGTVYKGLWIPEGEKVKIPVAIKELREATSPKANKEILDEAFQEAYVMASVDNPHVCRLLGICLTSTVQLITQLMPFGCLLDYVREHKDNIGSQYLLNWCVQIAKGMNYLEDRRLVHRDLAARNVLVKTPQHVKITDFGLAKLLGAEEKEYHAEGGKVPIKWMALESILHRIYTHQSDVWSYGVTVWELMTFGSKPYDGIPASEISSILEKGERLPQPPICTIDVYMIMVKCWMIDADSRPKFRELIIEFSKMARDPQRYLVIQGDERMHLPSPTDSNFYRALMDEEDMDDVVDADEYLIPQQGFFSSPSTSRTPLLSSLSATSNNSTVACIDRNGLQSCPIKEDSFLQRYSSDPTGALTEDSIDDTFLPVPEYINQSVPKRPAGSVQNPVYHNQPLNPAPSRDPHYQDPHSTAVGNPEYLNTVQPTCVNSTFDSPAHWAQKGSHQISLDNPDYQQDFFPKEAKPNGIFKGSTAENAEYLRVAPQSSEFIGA
T4 sequence (P00533 with tags, fused parts or gaps INS769ASV): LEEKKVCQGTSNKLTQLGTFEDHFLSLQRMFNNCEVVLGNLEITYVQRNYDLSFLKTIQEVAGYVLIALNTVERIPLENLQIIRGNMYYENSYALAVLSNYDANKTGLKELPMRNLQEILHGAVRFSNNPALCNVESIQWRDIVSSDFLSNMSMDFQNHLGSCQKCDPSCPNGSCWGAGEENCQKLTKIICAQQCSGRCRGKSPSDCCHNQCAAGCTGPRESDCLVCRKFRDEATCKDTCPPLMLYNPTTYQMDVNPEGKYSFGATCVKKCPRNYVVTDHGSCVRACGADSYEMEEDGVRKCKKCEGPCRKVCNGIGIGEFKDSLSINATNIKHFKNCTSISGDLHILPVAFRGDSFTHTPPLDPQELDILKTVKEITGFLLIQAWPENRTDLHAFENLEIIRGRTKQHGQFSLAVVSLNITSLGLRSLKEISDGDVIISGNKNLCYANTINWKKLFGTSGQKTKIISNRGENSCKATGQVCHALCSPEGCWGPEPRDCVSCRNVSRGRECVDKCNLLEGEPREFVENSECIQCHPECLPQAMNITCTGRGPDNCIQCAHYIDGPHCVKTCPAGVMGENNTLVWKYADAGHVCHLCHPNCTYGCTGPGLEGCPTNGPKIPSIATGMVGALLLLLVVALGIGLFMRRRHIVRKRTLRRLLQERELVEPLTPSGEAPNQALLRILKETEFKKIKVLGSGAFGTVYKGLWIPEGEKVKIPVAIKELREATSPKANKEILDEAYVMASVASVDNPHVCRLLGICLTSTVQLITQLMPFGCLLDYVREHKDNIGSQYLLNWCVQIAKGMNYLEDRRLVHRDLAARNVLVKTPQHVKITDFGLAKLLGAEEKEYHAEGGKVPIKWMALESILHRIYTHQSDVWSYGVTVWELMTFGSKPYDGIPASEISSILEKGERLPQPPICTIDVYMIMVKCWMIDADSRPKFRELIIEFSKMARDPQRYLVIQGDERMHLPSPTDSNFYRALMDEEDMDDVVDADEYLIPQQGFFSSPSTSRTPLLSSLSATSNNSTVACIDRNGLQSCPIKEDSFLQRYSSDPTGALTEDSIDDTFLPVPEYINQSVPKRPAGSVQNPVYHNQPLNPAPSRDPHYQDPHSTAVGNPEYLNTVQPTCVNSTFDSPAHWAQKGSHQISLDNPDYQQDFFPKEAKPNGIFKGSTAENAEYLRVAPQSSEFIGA

Compound | IC50 [1] | IC50 (EGFR WT (Ba/F3 cells)) | IC50 [2] | IC50 [3]
COc1c(F)cccc1Nc1c(-c2ccnc3cnc(C(F)(F)F)nc23)[nH]c2c1C(=O)NCC2 [compound 417] | 0.1 to 1 µM | > 1 µM | 0.1 to 1 µM | 0.1 to 1 µM
COc1c(Cl)cccc1Nc1c(-c2ccnc(C(F)(F)F)n2)[nH]c2c1C(=O)NCC2 [compound 476, 3-[(3-chloro-2-methoxyphenyl)amino]-2-[2-(trifluoromethyl)pyrimidin-4-yl]-1H,5H,6H,7H-pyrrolo[3,2-c]pyridin-4-one] | > 1 µM | > 1 µM | > 1 µM | > 1 µM
COc1nc2c(-c3[nH]c4c(c3Nc3cccc(Cl)c3OC)C(=O)NCC4)ccnc2cc1F [compound 477, 3-[(3-chloro-2-methoxyphenyl)amino]-2-(7-fluoro-6-methoxy-1,5-naphthyridin-4-yl)-1H,5H,6H,7H-pyrrolo[3,2-c]pyridin-4-one] | < 0.1 µM | 0.1 to 1 µM | < 0.1 µM | < 0.1 µM
COc1c(Cl)cccc1Nc1c(-c2ccncc2F)[nH]c2c1C(=O)NC[C@H]2CCN1CCOCC1 [compound 484, (7R)-3-[(3-chloro-2-methoxyphenyl)amino]-2-(3-fluoropyridin-4-yl)-7-[2-(morpholin-4-yl)ethyl]-1H,5H,6H,7H-pyrrolo[3,2-c]pyridin-4-one] | > 1 µM | > 1 µM | > 1 µM | > 1 µM
COc1c(Cl)cccc1Nc1c(-c2ccncc2F)[nH]c2c1C(=O)NC[C@H]2CCN(C)C [compound 486, (7R)-3-[(3-chloro-2-methoxyphenyl)amino]-7-[2-(dimethylamino)ethyl]-2-(3-fluoropyridin-4-yl)-1H,5H,6H,7H-pyrrolo[3,2-c]pyridin-4-one] | > 1 µM | > 1 µM | > 1 µM | > 1 µM
COc1c(Cl)cccc1Nc1c(-c2ccncc2F)[nH]c2c1C(=O)NC[C@@]21CCN(C(C)=O)C1 [compound 492] | > 1 µM | > 1 µM | > 1 µM | > 1 µM
COc1c(Cl)cccc1Nc1c(-c2ccncc2F)[nH]c2c1C(=O)NC[C@H]2CC(C)(C)O [compound 495, (7R)-3-[(3-chloro-2-methoxyphenyl)amino]-2-(3-fluoropyridin-4-yl)-7-(2-hydroxy-2-methylpropyl)-1H,5H,6H,7H-pyrrolo[3,2-c]pyridin-4-one] | < 0.1 µM | > 1 µM | < 0.1 µM | < 0.1 µM
COc1cc2nccc(-c3[nH]c4c(c3Nc3cccc(Cl)c3OC)C(=O)NCC4)c2nc1OCCN(C)C [compound 501, 3-[(3-chloro-2-methoxyphenyl)amino]-2-{6-[2-(dimethylamino)ethoxy]-7-methoxy-1,5-naphthyridin-4-yl}-1H,5H,6H,7H-pyrrolo[3,2-c]pyridin-4-one] | < 0.1 µM | 0.1 to 1 µM | < 0.1 µM | < 0.1 µM
COc1c(Cl)cccc1Nc1c(-c2ccnc3cnc(OCCN4CCOCC4)nc23)[nH]c2c1C(=O)NCC2 [compound 506, 3-[(3-chloro-2-methoxyphenyl)amino]-2-{2-[2-(morpholin-4-yl)ethoxy]pyrido[3,2-d]pyrimidin-8-yl}-1H,5H,6H,7H-pyrrolo[3,2-c]pyridin-4-one] | 0.1 to 1 µM | > 1 µM | 0.1 to 1 µM | 0.1 to 1 µM
COc1c(Cl)cccc1Nc1c(-c2ccnc(Nc3cnoc3C)n2)[nH]c2c1C(=O)NCC2 [compound 510, 3-[(3-chloro-2-methoxyphenyl)amino]-2-{2-[(5-methyl-1,2-oxazol-4-yl)amino]pyrimidin-4-yl}-1H,5H,6H,7H-pyrrolo[3,2-c]pyridin-4-one] | < 0.1 µM | > 1 µM | 0.1 to 1 µM | < 0.1 µM
COc1c(Cl)cccc1Nc1c(-c2ccnc(Nc3cc(C)n(C)n3)n2)[nH]c2c1C(=O)NCC2 [compound 513, 3-[(3-chloro-2-methoxyphenyl)amino]-2-{2-[(1,5-dimethylpyrazl-3-yl)amino]pyrimidin-4-yl}-1H,5H,6H,7H-pyrrolo[3,2-c]pyridin-4-one] | < 0.1 µM | < 0.1 µM | < 0.1 µM | < 0.1 µM
COc1c(Cl)cccc1Nc1c(-c2ccnc(Nc3cnn(C4CCOCC4)c3)n2)[nH]c2c1C(=O)NCC2 [compound 517, 3-[(3-chloro-2-methoxyphenyl)amino]-2-(2-{[1-(oxan-4-yl)pyrazol-4-yl]amino}pyrimidin-4-yl)-1H,5H,6H,7H-pyrrolo[3,2-c]pyridin-4-one] | < 0.1 µM | 0.1 to 1 µM | 0.1 to 1 µM | < 0.1 µM

Results, then the molecule that gave them:

IC50 [1] | IC50 (EGFR WT (Ba/F3 cells)) | IC50 [2] | IC50 [3] | Compound
0.1 to 1 µM | > 1 µM | 0.1 to 1 µM | 0.1 to 1 µM | COc1c(F)cccc1Nc1c(-c2ccncc2F)[nH]c2c1C(=O)NCC2 [compound 418]
< 0.1 µM | 0.1 to 1 µM | < 0.1 µM | < 0.1 µM | COc1c(F)cccc1Nc1c(-c2ccnc3cnc(OC4COC4)nc23)[nH]c2c1C(=O)NCC2 [compound 440]
0.1 to 1 µM | > 1 µM | > 1 µM | 0.1 to 1 µM | COc1c(Cl)cccc1Nc1c(-c2ccnc(C(F)F)n2)[nH]c2c1C(=O)NCC2 [compound 472, 3-[(3-chloro-2-methoxyphenyl)amino]-2-[2-(difluoromethyl)pyrimidin-4-yl]-1H,5H,6H,7H-pyrrolo[3,2-c]pyridin-4-one]
> 1 µM | > 1 µM | > 1 µM | > 1 µM | COc1c(Cl)cccc1Nc1c(-c2ccncc2F)[nH]c2c1C(=O)NC[C@@H]2CCN(C)C [compound 475, (7S)-3-[(3-chloro-2-methoxyphenyl)amino]-7-[2-(dimethylamino)ethyl]-2-(3-fluoropyridin-4-yl)-1H,5H,6H,7H-pyrrolo[3,2-c]pyridin-4-one]
> 1 µM | > 1 µM | > 1 µM | > 1 µM | COc1c(Cl)cccc1Nc1c(-c2ccncc2F)[nH]c2c1C(=O)NC[C@@H]2CCN1CCOCC1 [compound 485, (7S)-3-[(3-chloro-2-methoxyphenyl)amino]-2-(3-fluoropyridin-4-yl)-7-[2-(morpholin-4-yl)ethyl]-1H,5H,6H,7H-pyrrolo[3,2-c]pyridin-4-one]
> 1 µM | > 1 µM | > 1 µM | > 1 µM | COc1c(Cl)cccc1Nc1c(-c2ccncc2F)[nH]c2c1C(=O)NC[C@]21CCN(C(C)=O)C1 [compound 491]
0.1 to 1 µM | > 1 µM | 0.1 to 1 µM | 0.1 to 1 µM | COc1c(Cl)cccc1Nc1c(-c2ccncc2F)[nH]c2c1C(=O)NC[C@@]21CCN(S(C)(=O)=O)C1 [compound 493]
> 1 µM | > 1 µM | > 1 µM | > 1 µM | COc1c(Cl)cccc1Nc1c(-c2ccncc2F)[nH]c2c1C(=O)NC[C@]21CCN(S(C)(=O)=O)C1 [compound 494]
< 0.1 µM | 0.1 to 1 µM | < 0.1 µM | < 0.1 µM | COc1c(Cl)cccc1Nc1c(-c2ccnc3ccc(OCCCN4CCOCC4)nc23)[nH]c2c1C(=O)NCC2 [compound 503, 3-[(3-chloro-2-methoxyphenyl)amino]-2-{6-[3-(morpholin-4-yl)propoxy]-1,5-naphthyridin-4-yl}-1H,5H,6H,7H-pyrrolo[3,2-c] pyridin-4-one]
< 0.1 µM | 0.1 to 1 µM | 0.1 to 1 µM | < 0.1 µM | COc1c(Cl)cccc1Nc1c(-c2ccnc3ccc(OCCN4CCOCC4)nc23)[nH]c2c1C(=O)NCC2 [compound 504, 3-[(3-chloro-2-methoxyphenyl)amino]-2-{6-[2-(morpholin-4-yl)ethoxy]-1,5-naphthyridin-4-yl}-1H,5H,6H,7H-pyrrolo[3,2-c] pyridin-4-one]
< 0.1 µM | > 1 µM | 0.1 to 1 µM | < 0.1 µM | COc1c(Cl)cccc1Nc1c(-c2ccnc3cnc(OCCCN4CCOCC4)nc23)[nH]c2c1C(=O)NCC2 [compound 505, 3-[(3-chloro-2-methoxyphenyl)amino]-2-{2-[3-(morpholin-4-yl)propoxy]pyrido[3,2-d]pyrimidin-8-yl}-1H,5H,6H,7H-pyrrolo[3,2-c]pyridin-4-one]
< 0.1 µM | 0.1 to 1 µM | < 0.1 µM | < 0.1 µM | COc1c(Cl)cccc1Nc1c(-c2ccnc(Nc3cnn(C(C)C)c3)n2)[nH]c2c1C(=O)NCC2 [compound 516, 3-[(3-chloro-2-methoxyphenyl)amino]-2-{2-[(1-isopropylpyrazol-4-yl)amino]pyrimidin-4-yl}-1H,5H,6H,7H-pyrrolo[3,2-c]pyridin-4-one]
